Paper PMC7796460, “Relation of Metal-Binding Property and Selective Toxicity of 8-Hydroxyquinoline Derived Mannich Bases Targeting Multidrug Resistant Cancer Cells” (Cancers, 2021)

Assays:
A431-B1 cells = experiment: MTT viability assay, A431-B1; format: cell-based; conditions: for IC50: 72 h, MTT 72 h
From the text: (§1) MDCK II canine kidney cells, A431 epidermoid carcinoma cells, the human uterine sarcoma cell lines MES-SA and the doxorubicin selected MES-SA-Dx5 were obtained from ATCC (MDCK II: No. CRL-2936™, A431: No. CRL-1555™, MES-SA: No. CRL-1976™, MES-SA/Dx5: No. CRL-1977™). ABCB1 was expressed in A431 and MES-SA cells using lentiviral transduction. The human cervix carcinoma cell line KB-3-1 and the vinblastine selected KB-v1were kind gifts from Dr. Michael M. Gottesman, National Institutes of Health. The phenotype of the resistant cells was verified using cytotoxicity assays. MDCK-B1 and MDCK-MM were established by the Sleeping Beauty transposon-based gene delivery system. OVCAR-8 and NCI-ADRres cells (obtained from the Division of Cancer Treatment and Diagnosis (DCTD) Tumor Repository (National Cancer Institute, Frederick, MD, USA)) were cultivated in RPMI-1640 (Sigma Aldrich, Budapest, Hungary), and other cell lines were cultivated in Dulbecco’s Modified Eagle Medium (DMEM, Sigma Aldrich, Budapest, Hungary), supplemented with 10% fetal bovine serum, 5 mM glutamine, and 50 unit/mL penicillin and streptomycin (Life Technologies, Carlsbad, CA, USA). All cell lines were cultivated at 37 °C, 5% CO2.
(§2) MTT viability assays were performed as described earlier with minor modifications. Briefly, cells were seeded into 96-well tissue culture plates (Sarstedt, Newton, NC, USA/Orange, Braine-l’Alleud, Belgium) at a density of 5000 cells/well and allowed to attach overnight. Test compounds were added to achieve the required final concentration in a final volume of 100 µL per well. After an incubation period of 72 h, the supernatant was removed and fresh medium containing the MTT reagent (0.083 mg/mL) was added. Incubation with MTT at 37 °C was terminated after 1 h by removing the supernatant and lysing the cells with 100 µL DMSO per well. Viability of the cells was measured spectrophotometrically based on the absorbance values at 540 nm using either a Perkin Elmer Victor X3 or an EnSpire microplate reader. Data were background corrected by subtraction of the signal obtained from unstained cell lysates and normalized to untreated cells. Curves were fitted by Prism software (GraphPad Software Inc., San Diego, CA, USA) using the sigmoidal dose-response model (comparing variable and fixed slopes). […] Significance was calculated using unpaired t-tests; results are given as *: p ≤ 0.05, **: p ≤ 0.01, ***: p ≤ 0.001, ****: p ≤ 0.0001.

KB-3-1 cells = experiment: MTT viability assay, KB-3-1; format: cell-based; conditions: Homo sapiens, KB 3-1, 72 h, MTT 72 h
From the text: as §1, §2

NCI-ADRres cells = experiment: MTT viability assay, NCI-ADRres; format: cell-based; conditions: for IC50: Homo sapiens, NCI/ADR-RES, 72 h, MTT 72 h; for SR NCI-ADRres: IC50 OVCAR-8 vs. NCI-ADRres
From the text: as §1, §2

KB-v1 cells = experiment: MTT viability assay, KB-v1; format: cell-based; conditions: Homo sapiens, KB-V1, 72 h, MTT 72 h
From the text: as §1, §2

OVCAR-8 cells = experiment: MTT viability assay, OVCAR-8; format: cell-based; conditions: Homo sapiens, OVCAR-8, 72 h, MTT 72 h
From the text: as §1, §2

[1] = system: MES-SA, MES-SA/Dx5 and MES-SA/B1 cells; experiment: TXRF intracellular copper levels; format: cell-based, human; conditions: for Intracellular copper levels: 1 µM ligand with 5 µM CuCl2, 4 h (Figure 4B)
Description: Cells were seeded to 6-well plates in a density of 1.5 Mio cells/well and allowed to attach overnight. Following a washing step with phosphate buffered saline (PBS), cells were incubated in serum free DMEM. For the iron-level measurements, cells were preloaded with 25 µM holo-transferrin for 4 h and, after a washing step with serum free DMEM, cells were incubated with 5 µM of each ligand for 8 h. For the detection of copper levels, cells were treated with 1 µM of the ligands in the presence of 5 µM CuCl2 for 4 h. Following incubation, cells were harvested upon trypsination, washed twice with PBS, counted and the resulting pellets were digested in 20 μL of 30% H2O2, 80 μL of 65% HNO3. 10 μL of 15 µg/mL Ga(NO3)3 (in nitric acid) was added as an internal standard upon digestion for 24 h at room temperature. From the resulting solutions, 2 μL were pipetted on the quartz reflectors used for total-reflection X-ray fluorescence (TXRF) analysis. For the determination of the intracellular Cu content, the TXRF method was used as previously reported. Briefly, all determinations were performed on an Atomika 8030C TXRF spectrometer (Atomika Instruments GmbH, Oberschleissheim, Germany). The stock solution of 1000 mg/L Ga was purchased from Merck (Darmstadt, Germany). The Kα line used for determination of Fe and Cu were at 6.403 and 8.047 keV. […] Significance was calculated using unpaired t-tests; results are given as *: p ≤ 0.05, **: p ≤ 0.01, ***: p ≤ 0.001, ****: p ≤ 0.0001.
Figure 4 Effect of the compounds on intracellular metal levels. (A) Iron levels of MES-SA (open columns) and MES-SA/B1 cells in absence (dark red squared columns) and presence of Pgp inhibitor Tariquidar (bright red squared columns). Cells were loaded with 25 µM holo-transferrin (4 h), followed by an incubation (8 h) without (ctr) or with 5 µM of ligands Q-1, Q-2, Q-3, and Q-4. […] (B) Cellular copper levels measured following a 4 h co-administration of compounds Q-1, Q-2, Q-3, and Q-4 (1 µM) and CuCl2 (5 µM) in MES-SA (open columns), MES-SA/Dx5 (filled columns) and MES-SA-B1 (squared columns) cells. Significance is given as *: p ≤ 0.05, **: p ≤ 0.01, ***: p ≤ 0.001.

[2] = presence of 1 µM Tariquidar (values in brackets)
[3] = IC50 A431 vs. A431-B1, absence of Tariquidar
[4] = IC50 A431 vs. A431-B1, presence of 1 µM Tariquidar (brackets)
[5] = presence of 1 µM Tariquidar (brackets)

**Q.** How did the IC50 (A431-B1 cells; absence of Tariquidar) turn out when `Oc1c(CN2CCCCC2)ccc2cccnc12` [Compound Q-3, 7-(piperidin-1-ylmethyl)quinolin-8-ol] was run?
**A.** 1.14 ± 0.16 µM

**Q.** What about the IC50 (A431-B1 cells; [2]) of the same molecule?
**A.** 5.58 µM

**Q.** And the “SR A431-B1” value (A431-B1 cells; [3])?
**A.** 3.96

**Q.** What about the “SR A431-B1” value (A431-B1 cells; [4]) of the same molecule?
**A.** 0.73

**Q.** And the IC50 (KB-3-1 cells; absence of Tariquidar)?
**A.** 6.19 ± 0.12 µM

**Q.** What about the IC50 (KB-3-1 cells; [2]) of the same molecule?
**A.** 6.69 µM

**Q.** And the IC50 (NCI-ADRres cells; absence of Tariquidar)?
**A.** 0.68 ± 0.09 µM

**Q.** And the IC50 (NCI-ADRres cells; [2])?
**A.** 4.22 µM

**Q.** And the “SR NCI-ADRres” value (NCI-ADRres cells; absence of Tariquidar)?
**A.** 4.60

**Q.** What about the “SR NCI-ADRres” value (NCI-ADRres cells; [5]) of the same molecule?
**A.** 0.88

**Q.** What about the IC50 (KB-v1 cells; absence of Tariquidar) of the same molecule?
**A.** 1.56 ± 0.57 µM

**Q.** What about the IC50 (KB-v1 cells; [2]) of the same molecule?
**A.** 7.47 µM

**Q.** And the IC50 (OVCAR-8 cells; absence of Tariquidar)?
**A.** 3.15 ± 0.36 µM

**Q.** What about the IC50 (OVCAR-8 cells; [2]) of the same molecule?
**A.** 3.72 µM

**Q.** What about the “Increase in copper uptake” value ([1]; 1 µM ligand with 5 µM CuCl2, 4 h) of the same molecule?
**A.** 10 fold

**Q.** What does the source list for `Oc1c(CNCc2ccccc2F)cc(Cl)c2cccnc12` [Compound Q-4, 5-chloro-7-((2-fluorobenzylamino)methyl)quinolin-8-ol]?
**A.** IC50 (A431-B1 cells; absence of Tariquidar): 2.57 ± 0.56 µM; IC50 (A431-B1 cells; [2]): 7.95 µM; IC50 (KB-3-1 cells; absence of Tariquidar): 1.75 ± 0.62 µM; IC50 (KB-3-1 cells; [2]): 2.65 µM; IC50 (NCI-ADRres cells; absence of Tariquidar): 0.14 ± 0.07 µM; IC50 (NCI-ADRres cells; [2]): 1.15 µM; SR NCI-ADRres (NCI-ADRres cells; absence of Tariquidar): 7.84; IC50 (KB-v1 cells; absence of Tariquidar): 0.27 ± 0.12 µM; IC50 (KB-v1 cells; [2]): 2.27 µM; IC50 (OVCAR-8 cells; absence of Tariquidar): 1.08 ± 0.1 µM; IC50 (OVCAR-8 cells; [2]): 1.09 µM; Intracellular copper levels [1]: significantly increased copper levels

**Q.** Which results are given for `Oc1cccc2cccnc12` [Compound Q-1, 8-Hydroxyquinoline]?
**A.** IC50 (A431-B1 cells; absence of Tariquidar): 8.21 ± 4.04 µM; IC50 (A431-B1 cells; [2]): 7.06 µM; SR A431-B1 (A431-B1 cells; [3]): 0.31; SR A431-B1 (A431-B1 cells; [4]): 0.41; IC50 (KB-3-1 cells; absence of Tariquidar): 8.59 ± 2.92 µM; IC50 (KB-3-1 cells; [2]): 10.9 µM; IC50 (NCI-ADRres cells; absence of Tariquidar): 1.84 ± 0.3 µM; IC50 (NCI-ADRres cells; [2]): 2.65 µM; SR NCI-ADRres (NCI-ADRres cells; absence of Tariquidar): 1.88; SR NCI-ADRres (NCI-ADRres cells; [5]): 1.29; IC50 (KB-v1 cells; absence of Tariquidar): 8.71 ± 4.43 µM; IC50 (KB-v1 cells; [2]): 10.8 µM; IC50 (OVCAR-8 cells; absence of Tariquidar): 3.45 ± 0.13 µM; IC50 (OVCAR-8 cells; [2]): 3.43 µM; Intracellular copper levels [1]: significantly increased copper levels

**Q.** How did the IC50 (A431-B1 cells; absence of Tariquidar) turn out when `Oc1c(CN2CCOCC2)ccc2cccnc12` [Compound Q-2, 7-(morpho-lino-methyl)quinolin-8-ol] was run?
**A.** 4.05 ± 1.86 µM

**Q.** What about the IC50 (A431-B1 cells; [2]) of the same molecule?
**A.** 7.64 µM

**Q.** What about the “SR A431-B1” value (A431-B1 cells; [3]) of the same molecule?
**A.** 0.82

**Q.** What about the “SR A431-B1” value (A431-B1 cells; [4]) of the same molecule?
**A.** 0.42

**Q.** What about the IC50 (KB-3-1 cells; absence of Tariquidar) of the same molecule?
**A.** 9.55 ± 2.55 µM

**Q.** And the IC50 (KB-3-1 cells; [2])?
**A.** 11.7 µM

**Q.** What about the IC50 (NCI-ADRres cells; absence of Tariquidar) of the same molecule?
**A.** 2.84 ± 0.81 µM

**Q.** And the IC50 (NCI-ADRres cells; [2])?
**A.** 5.41 µM

**Q.** And the “SR NCI-ADRres” value (NCI-ADRres cells; absence of Tariquidar)?
**A.** 1.11

**Q.** What about the “SR NCI-ADRres” value (NCI-ADRres cells; [5]) of the same molecule?
**A.** 0.61

**Q.** And the IC50 (KB-v1 cells; absence of Tariquidar)?
**A.** 6.42 ± 2.19 µM

**Q.** And the IC50 (KB-v1 cells; [2])?
**A.** 11.3 µM

**Q.** And the IC50 (OVCAR-8 cells; absence of Tariquidar)?
**A.** 3.16 ± 0.52 µM

**Q.** And the IC50 (OVCAR-8 cells; [2])?
**A.** 3.28 µM

**Q.** And the Intracellular copper levels [1]?
**A.** significantly increased copper levels
